Laboratory results published in paper PMC8185074, “Anchor extension: a structure-guided approach to design cyclic peptides targeting enzyme active sites” (Nature Communications, 2021).
Peptide text beside a SMILES is read from it.

Columns and labels:
Format in all cases: biochemical
[1] = target: T1, HDAC1 (Homo sapiens, UniProt Q13547); test: HDAC1 inhibition, full IC50 measurement (Reaction Biology; fluorogenic p53 peptide RHKK(Ac)AMC); conditions: t1/t2 replicates
T1 construct: purchased Reaction Biology Corporation (assay run by the CRO)
T1 sequence (Q13547 whole entry): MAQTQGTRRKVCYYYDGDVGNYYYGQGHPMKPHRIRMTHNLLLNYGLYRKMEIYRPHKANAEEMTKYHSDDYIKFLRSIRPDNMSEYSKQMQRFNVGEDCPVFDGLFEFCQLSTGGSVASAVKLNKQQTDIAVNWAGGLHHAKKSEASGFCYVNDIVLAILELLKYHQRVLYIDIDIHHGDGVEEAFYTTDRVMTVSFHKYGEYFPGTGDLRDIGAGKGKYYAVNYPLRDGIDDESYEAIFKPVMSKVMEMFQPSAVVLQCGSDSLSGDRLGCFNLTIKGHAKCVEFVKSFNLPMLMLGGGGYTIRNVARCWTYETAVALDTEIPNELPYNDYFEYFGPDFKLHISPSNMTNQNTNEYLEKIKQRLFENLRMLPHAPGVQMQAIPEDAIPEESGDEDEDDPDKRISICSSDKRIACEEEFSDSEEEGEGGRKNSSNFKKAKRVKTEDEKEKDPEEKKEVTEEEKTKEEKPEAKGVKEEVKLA
Experimental: (§1) The assay was performed using 50 μM fluorogenic peptide from p53 residues 379-382 [RHKK(Ac)AMC] in a base reaction buffer of 50 mM Tris-HCl at pH 8.0, 137 mM NaCl, 2.7 mM KCl, 1 mM MgCl2, and freshly added 1 mg/ml BSA and 1% DMSO. Peptides were first dissolved in DMSO and then added to the reaction mixture with the enzyme using acoustic technique, enough to reach the desired concentration for that assay point. Peptide concentrations were calculated based on mass of lyophilized peptide and its molecular weight. The substrate was then added and incubated for 1 hour at 30 °C in a sealed container. After the incubation, developer was added to stop the reaction and develop color. Kinetic measurements were then performed for 20 min with Envision with 5 min intervals (Ex/Em = 360/460 nm). The endpoint after plateau was taken for IC50 measurement.
(§2) In cases where duplicate measures are used, average data is reported in the main text or Supplementary Tables.

[2] = target: T2, HDAC8 (Homo sapiens, UniProt Q9BY41); test: HDAC8 inhibition, full IC50 measurement (Reaction Biology; fluorogenic p53 peptide RHKK(Ac)AMC); conditions: t1/t2 replicates
T2 construct: purchased Reaction Biology Corporation (assay run by the CRO)
T2 sequence (Q9BY41 1-377): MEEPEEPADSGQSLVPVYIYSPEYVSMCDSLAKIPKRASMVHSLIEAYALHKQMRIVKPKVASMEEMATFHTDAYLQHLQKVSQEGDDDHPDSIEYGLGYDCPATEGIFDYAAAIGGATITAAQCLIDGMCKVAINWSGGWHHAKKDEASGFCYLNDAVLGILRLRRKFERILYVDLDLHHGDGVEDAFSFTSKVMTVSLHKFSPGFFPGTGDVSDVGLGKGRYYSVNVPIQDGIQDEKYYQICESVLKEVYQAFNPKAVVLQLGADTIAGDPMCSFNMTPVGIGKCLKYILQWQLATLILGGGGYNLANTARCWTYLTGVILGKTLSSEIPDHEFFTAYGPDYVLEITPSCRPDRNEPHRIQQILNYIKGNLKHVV
Experimental: as §1, §2

[3] = target: T3, HDAC2 (Homo sapiens, UniProt Q92769); test: HDAC2 inhibition, full IC50 measurement (Reaction Biology; fluorogenic p53 peptide RHKK(Ac)AMC)
T3 construct: purchased Reaction Biology Corporation (assay run by the CRO)
T3 sequence (Q92769 whole entry): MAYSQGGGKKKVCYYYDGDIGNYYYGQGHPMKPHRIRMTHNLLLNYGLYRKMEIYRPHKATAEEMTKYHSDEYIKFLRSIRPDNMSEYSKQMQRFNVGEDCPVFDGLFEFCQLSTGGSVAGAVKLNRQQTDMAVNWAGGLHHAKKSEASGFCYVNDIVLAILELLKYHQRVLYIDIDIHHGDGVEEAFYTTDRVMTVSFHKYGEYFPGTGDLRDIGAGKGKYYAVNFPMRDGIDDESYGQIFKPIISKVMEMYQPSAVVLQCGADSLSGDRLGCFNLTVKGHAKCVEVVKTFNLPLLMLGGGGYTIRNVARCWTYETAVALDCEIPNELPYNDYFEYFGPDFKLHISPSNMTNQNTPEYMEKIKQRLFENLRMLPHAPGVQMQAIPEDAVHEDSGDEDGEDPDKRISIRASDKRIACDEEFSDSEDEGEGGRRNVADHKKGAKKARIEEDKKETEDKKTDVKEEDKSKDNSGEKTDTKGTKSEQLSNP
Procedure, shortened: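 Reaction: enzyme plus acoustically dispensed peptide inhibitor, 50 μM RHKK(Ac)AMC substrate, pH 8.0 Tris buffer with BSA and 1% DMSO, 1 h, 30 °C. Duplicates averaged.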

[4] = peptide conc. 1.00E-05 M, listed as des4.3.1_t1
[5] = peptide conc. 1.00E-05 M, listed as des4.3.1_t2
[6] = peptide conc. 1.11E-06 M, listed as des4.3.1_t1
[7] = peptide conc. 1.11E-06 M, listed as des4.3.1_t2
[8] = peptide conc. 1.23E-07 M, listed as des4.3.1_t1
[9] = peptide conc. 1.23E-07 M, listed as des4.3.1_t2
[10] = peptide conc. 1.37E-08 M, listed as des4.3.1_t1
[11] = peptide conc. 1.37E-08 M, listed as des4.3.1_t2
[12] = peptide conc. 1.52E-09 M, listed as des4.3.1_t1
[13] = peptide conc. 1.52E-09 M, listed as des4.3.1_t2
[14] = peptide conc. 3.33E-06 M, listed as des4.3.1_t1
[15] = peptide conc. 3.33E-06 M, listed as des4.3.1_t2
[16] = peptide conc. 3.70E-07 M, listed as des4.3.1_t1
[17] = peptide conc. 3.70E-07 M, listed as des4.3.1_t2
[18] = peptide conc. 4.12E-08 M, listed as des4.3.1_t1
[19] = peptide conc. 4.12E-08 M, listed as des4.3.1_t2
[20] = peptide conc. 4.57E-09 M, listed as des4.3.1_t1
[21] = peptide conc. 4.57E-09 M, listed as des4.3.1_t2
[22] = peptide conc. 5.08E-10 M, listed as des4.3.1_t1
[23] = peptide conc. 5.08E-10 M, listed as des4.3.1_t2

In the case of CCCC[C@H]1NC(=O)[C@H](Cc2ccccc2)NC(=O)[C@H](CCCCCS)NC(=O)[C@@H](CCCNC(=N)N)NC(=O)[C@H](CC(=O)O)NC(=O)[C@@H](CO)NC(=O)[C@@H](C)NC(=O)[C@H](CCCCN)NC1=O [des4.3.1, SHA-Phe-dNle-Lys-dAla-dSer-Asp-dArg] (HELM PEPTIDE1{D.[dR].[O=C([C@H](CCCCCS)N[*:1])[*:2]].F.[CCCC[C@@H](N[*:1])C(=O)[*:2]].K.[dA].[dS]}$PEPTIDE1,PEPTIDE1,1:R1-8:R2$$$V2.0), the “HDAC1 activity raw data (signal)” value [1, 4] is reported as 61312, the “HDAC1 activity raw data (signal)” value [1, 5] is reported as 56616 and the “HDAC1 activity raw data (signal)” value [1, 6] is reported as 524367. The “HDAC1 activity raw data (signal)” value [1, 7] was 474109, the “HDAC1 activity raw data (signal)” value [1, 8] was 1051662 and the “HDAC1 activity raw data (signal)” value [1, 9] was 1036587. The “HDAC1 activity raw data (signal)” value [1, 10] was 1215949, the “HDAC1 activity raw data (signal)” value [1, 11] was 1295956 and the “HDAC1 activity raw data (signal)” value [1, 12] was 1351214. For the same compound, the “HDAC1 activity raw data (signal)” value [1, 13] was 1240672, the “HDAC1 activity raw data (signal)” value [1, 14] was 212161 and the “HDAC1 activity raw data (signal)” value [1, 15] was 198550. The “HDAC1 activity raw data (signal)” value [1, 16] was 878996, the “HDAC1 activity raw data (signal)” value [1, 17] was 808933 and the “HDAC1 activity raw data (signal)” value [1, 18] was 1147207. The “HDAC1 activity raw data (signal)” value [1, 19] was 1235202, the “HDAC1 activity raw data (signal)” value [1, 20] was 1224928 and the “HDAC1 activity raw data (signal)” value [1, 21] was 1148569. The “HDAC1 activity raw data (signal)” value [1, 22] was 1219331, the “HDAC1 activity raw data (signal)” value [1, 23] was 1171745 and the “HDAC8 activity raw data (signal)” value [2, 4] was -1078311. For the same compound, the “HDAC8 activity raw data (signal)” value [2, 5] was -204031, the “HDAC8 activity raw data (signal)” value [2, 6] was 952629 and the “HDAC8 activity raw data (signal)” value [2, 7] was 3749954. For the same compound, the “HDAC8 activity raw data (signal)” value [2, 8] was 24845816, the “HDAC8 activity raw data (signal)” value [2, 9] was 32510062 and the “HDAC8 activity raw data (signal)” value [2, 10] was 71732810. The “HDAC8 activity raw data (signal)” value [2, 11] was 73842492, the “HDAC8 activity raw data (signal)” value [2, 12] was 70954745 and the “HDAC8 activity raw data (signal)” value [2, 13] was 80270259. For the same compound, the “HDAC8 activity raw data (signal)” value [2, 14] was 928811, the “HDAC8 activity raw data (signal)” value [2, 15] was 1732618 and the “HDAC8 activity raw data (signal)” value [2, 16] was 8410528. For the same compound, the “HDAC8 activity raw data (signal)” value [2, 17] was 10886213, the “HDAC8 activity raw data (signal)” value [2, 18] was 59468141 and the “HDAC8 activity raw data (signal)” value [2, 19] was 56999449. For the same compound, the “HDAC8 activity raw data (signal)” value [2, 20] was 79326596, the “HDAC8 activity raw data (signal)” value [2, 21] was 78170432 and the “HDAC8 activity raw data (signal)” value [2, 22] was 81559751. For the same compound, the “HDAC8 activity raw data (signal)” value [2, 23] was 84202880, the “HDAC2 activity raw data (signal)” value ([3]; Conc. 1.00E-05 M, t1) was 97979 and the “HDAC2 activity raw data (signal)” value ([3]; Conc. 1.00E-05 M, t2) was 118920. The “HDAC2 activity raw data (signal)” value ([3]; Conc. 1.11E-06 M, t1) was 710265, the “HDAC2 activity raw data (signal)” value ([3]; Conc. 1.11E-06 M, t2) was 678505 and the “HDAC2 activity raw data (signal)” value ([3]; Conc. 1.23E-07 M, t1) was 1050894. The “HDAC2 activity raw data (signal)” value ([3]; Conc. 1.23E-07 M, t2) was 1073616, the “HDAC2 activity raw data (signal)” value ([3]; Conc. 1.37E-08 M, t1) was 1089277 and the “HDAC2 activity raw data (signal)” value ([3]; Conc. 1.37E-08 M, t2) was 1188700. The “HDAC2 activity raw data (signal)” value ([3]; Conc. 1.52E-09 M, t1) was 1283576, the “HDAC2 activity raw data (signal)” value ([3]; Conc. 1.52E-09 M, t2) was 1146756 and the “HDAC2 activity raw data (signal)” value ([3]; Conc. 3.33E-06 M, t1) was 321418. The “HDAC2 activity raw data (signal)” value ([3]; Conc. 3.33E-06 M, t2) was 369190, the “HDAC2 activity raw data (signal)” value ([3]; Conc. 3.70E-07 M, t1) was 905304 and the “HDAC2 activity raw data (signal)” value ([3]; Conc. 3.70E-07 M, t2) was 972905. The “HDAC2 activity raw data (signal)” value ([3]; Conc. 4.12E-08 M, t1) was 1002980, the “HDAC2 activity raw data (signal)” value ([3]; Conc. 4.12E-08 M, t2) was 1204296 and the “HDAC2 activity raw data (signal)” value ([3]; Conc. 4.57E-09 M, t1) was 1158146. The “HDAC2 activity raw data (signal)” value ([3]; Conc. 4.57E-09 M, t2) was 1127910, the “HDAC2 activity raw data (signal)” value ([3]; Conc. 5.08E-10 M, t1) was 1185807 and the “HDAC2 activity raw data (signal)” value ([3]; Conc. 5.08E-10 M, t2) was 1137899. The IC50 ([3]; unit printed only in the axis title, read-out: HDAC2 IC50 (printed in dose-response picture)) was 1500 nM.
